In patent publication US11597703B2, “Caspase inhibitors and methods of use thereof” (Histogen Inc., priority 2019, dated 2023) one finds inhibition and IC50 data, which are given here for one compound.

A word on the IC50: it is the concentration that gives 50% inhibition.

In one assay the test system is Jurkat cells. Nature of the assay: Prevention of Fas-induced apoptosis in Jurkat cells (WST-8). Format: cell-based. The note with it: Homo sapiens, 10 micromolar, read-out: % Prevention of Fas - induced Jurkat cell apoptosis at 10 micromolar. The protocol:
Compounds of the present invention were evaluated in Jurkat cells, a human T-lymphocyte cell line, to evaluate compounds ability to inhibit apoptotic cell death. Jurkat cells, Clone E6-1 (ATCC TIB-152) were grown in culture maintain a cell density between 0.5-2 million cells/mL. Cells were tested for viability and countion with typan blue stain before use. Test compounds were addedd to 96 well plates and Jurkat cells were added at a concentration of approximately 100,000 cells per well and mixed thoroughly by action of pipetting. Plated cells were incubated for 1 hour at 37 degrees C. under an atmosphere of 5% CO2. Anti-Fas antibody was added and mixed by pipet action. Plates were incubated for 20 hours at 37 degrees C. under an atmosphere of 5% CO2. 10 microliters of thawed WST-8 solution was added to each well and incubated for 4 hours. Absorbance was measured at 450 nm and control reading at […] using a SpectraMax ID5 plate reader. Apoptotic cell death is executed by caspases 3, 7 and 6. Compounds that lack activity against these caspases will not prevent the death of Jurkat cells and is a functional test of selectivity for inflammatory over apoptotic caspases.
IC50 values to protect against Fas induced apoptosis and improve survival of Jurkat cells were determined from dose response studies.
(In general: Tetrazolium assays rely on reduction of a dye to a coloured formazan, in cell work by metabolically active cells.)

For another assay, the system named is IL-1β. Nature of the assay: Inhibition of LPS-stimulated IL-1β in THP-1 cells (ELISA). In kind it is cell-based, human. As to conditions: Homo sapiens, 10 micromolar, read-out: Percent Inhibition of IL1-β. A general note: ELISA stands for enzyme-linked immunosorbent assay.
Another assay concerns the target T1, Caspase-1 (Homo sapiens, UniProt P29466).
T1 construct: purchased Enzo Biosciences
T1 sequence (P29466 120-297 limits assumed): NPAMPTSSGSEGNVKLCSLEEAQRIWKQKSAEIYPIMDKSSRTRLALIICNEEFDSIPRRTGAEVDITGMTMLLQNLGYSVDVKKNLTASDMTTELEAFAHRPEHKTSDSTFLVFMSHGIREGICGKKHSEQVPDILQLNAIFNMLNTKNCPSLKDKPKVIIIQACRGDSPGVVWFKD
T1 sequence (P29466 317-404 limits assumed): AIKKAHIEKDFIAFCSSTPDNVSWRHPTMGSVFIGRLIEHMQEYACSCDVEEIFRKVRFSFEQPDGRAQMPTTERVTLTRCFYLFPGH
Nature of the assay: Caspase-1 enzyme inhibition assay (Ac-YVAD-pNA substrate), IC50. Format: biochemical. The procedure, abridged:
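Buffer was 50 mM HEPES pH 7.4, 100 mM NaCl, 0.1% CHAPS, 1 mM EDTA, 10% glycerol and 10 mM DTT. Caspase-1 was reacted with 200 μM Ac-YVAD-pNA (final). Release of p-nitroaniline was followed continuously at 405 nm, and rates were taken from the linear slope (ε 10,500 M-1 cm-1).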

In the next assay the target is T2, Caspase-3 (Homo sapiens, UniProt P42574).
T2 construct: purchased Enzo Biosciences
T2 sequence (P42574 29-175 limits assumed): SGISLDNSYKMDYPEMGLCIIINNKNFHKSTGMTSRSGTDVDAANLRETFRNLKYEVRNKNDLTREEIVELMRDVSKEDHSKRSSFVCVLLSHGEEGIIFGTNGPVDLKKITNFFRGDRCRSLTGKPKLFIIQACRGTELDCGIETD
T2 sequence (P42574 176-277 limits assumed): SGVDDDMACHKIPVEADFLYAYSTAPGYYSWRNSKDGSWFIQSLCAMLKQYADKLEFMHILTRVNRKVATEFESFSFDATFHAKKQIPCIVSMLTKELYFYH
Briefly: Caspase-3 enzymatic inhibition assay, IC50. As to conditions: read-out: Caspase 3 enzyme inhibition IC50. Format: biochemical. In a few lines:
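Human caspase-3/-6/-7, commercial enzyme; run per manufacturer's instructions; IC50 from enzymatic activity.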

As to `C[C@H](NC(=O)C(=O)Nc1c(F)cccc1F)C(=O)N[C@@H](CCC(=O)O)C(=O)COc1c(F)c(F)cc(F)c1F` [Example 6, (S)-4-((S)-2-(2-((2,6-Difluorophenyl)amino)-2-oxoacetamido)propanamido)-5-oxo-6-(2,3,5,6-tetrafluorophenoxy)hexanoic acid], the inhibition at 10 µM was at most 10% in the assay with Jurkat cells and over 90% in the assay on IL-1β. Also, the figures for the IC50 against Caspase-1 and at Caspase-3 were at most 10 nM and at least 1000 nM, respectively.
